Results taken from patent publication US20100160454A1, “ANTIMICROBIAL AGENTS, COMPOSITIONS AND PRODUCTS CONTAINING THE SAME, AND METHODS OF USING THE COMPOSITIONS AND PRODUCTS” (Eastman Chemical Company, priority 2008, published 2010).

Experiments:
Experiment in all cases: Microbiological challenge testing in BPW broth, graded subculture counts
Format in all cases: cell-based
[1] = tested on: Candida albicans Wild type; details: C. albicans
Procedure: (§1) The microorganisms in the table below were used in challenge tests. They were either ATCC (American Type Culture Collection) or “wild type” as indicated. Wild type organisms were problematic organisms previously isolated from chemical products.
(§2) All of the microorganisms were grown in Tryptose Soy Broth (TSB), DIFCO™ available from Becton, Dickinson and Company, containing 1% dextrose. Candida albicans and Aspergillus niger, were incubated at 22° C.+/−2° C. for at least 96 hours. All bacteria were incubated at 35° C.+/−2° C. in a humidified incubator for at least 96 hours.
(§3) Candida albicans and Aspergillus niger were also grown on Sabouraud Dextrose Agar (SABD) at 22° C. for 7 to 14 days or until full sporulation was achieved.
(§4) The following procedure was followed to determine the amount of each challenge material (inoculum broth) needed to produce a 10^8 CFU/mL challenge, which is equivalent to a final test-sample microbial concentration of 10^5 to 10^6 CFU/mL (CFU=colony forming units).
(§5) Using a sterile pipette, 1 mL of the growth from each TSB culture was transferred into tubes of 9 mL buffered water (pH 7.2 phosphate buffer) and mixed thoroughly. This was repeated to make serial 1:10 dilutions. Then, 0.1 mL of each sample and dilution was inoculated onto agar plates to produce the equivalent of a further 1:10 dilution. (C. albicans and A. niger were inoculated onto SABD and bacteria were inoculated onto Plate Count Agar (PCA), DIFCO™ available from Becton, Dickinson and Company.) (The normal volume plated for most samples was 0.1 mL. Some samples that could be very low in micro-organisms (high dilutions) were plated using 0.5 mL of inoculum, in order to produce reproducible counts.) The samples were distributed on the plates using the spread-plate technique. The spread-plate technique is carried out by spreading the sample over the entire plate surface using a sterile spreading rod while rotating the plate with a rotary auto-plater. After the inoculum was absorbed completely by the agar, each plate was inverted and incubated (fungi at 22° C.+/−2° C. and bacteria at 35° C.+/−2° C.).
(§6) After incubation for at least 48 hours, colonies that had developed on the agar plates were counted (CFU) and recorded with the corresponding dilution. If counting had to be delayed temporarily, plates were refrigerated, preferably no more than 24 hours, until they could be counted. The number of CFU/mL was determined by multiplying the plate count by the dilution factor of the plate counted.
(§7) Turbidity in Nepholemetric Turbidity Units (NTU) was measured for each serial dilution using the HF-Micro 100 Model Turbidimeter. For each microorganism, the plate counts were compared to the turbidity readings.
On the day of challenge, the Candida albicans inoculum broth was poured through nonabsorbent sterile gauze and centrifuged. The […] was then diluted with buffered water (pH 7.2 phosphate buffer) until the desired turbidity was reached. Using a hemocytometer, a determination was made whether the challenge contained the desired concentration. Dilutions were made through 1.0×10^8 and three SABD spread plates were inoculated with 0.1 mL of each dilution. The plates were incubated for at least 48 hours and challenge counts were confirmed.
(§8) Control substrates (“broth alone”) were prepared for each microorganism separately in triplicate by adding 13.5 mL of Buffered Peptone Water broth (BPW) containing 1% dextrose to each 20-mL glass tube, then adding 1.5 mL challenge material to produce a final concentration at time zero of 10^5 to 10^6 CFU/mL and a total volume of 15 mL.

[2] = tested on: Aspergillus niger Wild type; details: A. niger
Procedure: as §1, §2, §3, §4, §5, §6, §7
Aspergillus niger cultures were harvested and spores dislodged from the SABD on which they were grown by rubbing the growth gently with a sterile inoculating loop. The spores were then mixed into the broth culture that had been incubated with a sterile magnetic stir bar to reduce pellicle formation. The spore-culture mixture was filtered repeatedly through sterile, nonabsorbent cotton and harvested repeatedly, adjusting vegetative cells and spores to a level of 1.0×10^8. A hemocytometer was used to verify the final challenge concentration.
as §8

[3] = tested on: Proteus vulgaris Wild type
Procedure: as §1, §2, §4, §5, §6, §7, §8
(§9) Test sample substrates were prepared containing each test material listed below at the concentrations shown for challenge testing with each microorganism separately. Sample substrates were prepared in triplicate, except the substrates containing butoxyethanol which were prepared in duplicate. Substrates were prepared by adding BPW containing 1% dextrose to each 20-mL glass tube, then adding the test material in the amount appropriate to achieve the desired weight/volume percent and to achieve a total volume of BPW plus dextrose plus test material of 13.5 mL. Then 1.5 mL challenge material was added to produce a final concentration at time zero of 10^5 to 10^6 CFU/mL and a total test sample substrate volume of 15 mL.

[4] = tested on: Burkholderia cepacia Wild type; details: B. cepacia
Procedure: as §1, §2, §4, §5, §6, §7, §8, §9

[5] = tested on: Staphylococcus aureus ATCC 25923; details: S. aureus
Procedure: as §1, §2, §4, §5, §6, §7, §8, §9

Structure (SMILES): OCC1CCCC(CO)C1 (stereo not drawn) [1,3-CHDM, 1,3-cyclohexanedimethanol]
- Grade ([1]; 0.5% (wt/vol), 3 day): 4 (1000 to 10,000 colonies countable (thus 10,000 CFU/mL to 100,000 CFU/mL))
- Grade ([1]; 0.5% (wt/vol), 14 day): 4 (1000 to 10,000 colonies countable (thus 10,000 CFU/mL to 100,000 CFU/mL))
- Grade ([1]; 0.5% (wt/vol), 30 day): 4 (1000 to 10,000 colonies countable (thus 10,000 CFU/mL to 100,000 CFU/mL))
- Grade ([1]; 1.25% (wt/vol), 3 day): 4 (1000 to 10,000 colonies countable (thus 10,000 CFU/mL to 100,000 CFU/mL))
- Grade ([1]; 1.25% (wt/vol), 14 day): 4 (1000 to 10,000 colonies countable (thus 10,000 CFU/mL to 100,000 CFU/mL))
- Grade ([1]; 1.25% (wt/vol), 30 day): 4 (1000 to 10,000 colonies countable (thus 10,000 CFU/mL to 100,000 CFU/mL))
- Grade ([1]; 2.5% (wt/vol), 3 day): 4 (1000 to 10,000 colonies countable (thus 10,000 CFU/mL to 100,000 CFU/mL))
- Grade ([1]; 2.5% (wt/vol), 14 day): 4 (1000 to 10,000 colonies countable (thus 10,000 CFU/mL to 100,000 CFU/mL))
- Grade ([1]; 2.5% (wt/vol), 30 day): 4 (1000 to 10,000 colonies countable (thus 10,000 CFU/mL to 100,000 CFU/mL))
- Grade ([1]; 5.0% (wt/vol), 3 day): 0
- Grade ([1]; 5.0% (wt/vol), 14 day): 2 (52 to 100 colonies counted (thus 520 to 1000 CFU/mL))
- Grade ([1]; 5.0% (wt/vol), 30 day): 3 (100 to 1000 colonies (thus 1000 to 10,000 CFU/mL))
- Grade ([2]; 0.5% (wt/vol), 3 day): 5
- Grade ([2]; 0.5% (wt/vol), 13 day): 5
- Grade ([2]; 0.5% (wt/vol), 30 day): 5
- Grade ([2]; 1.25% (wt/vol), 3 day): 5
- Grade ([2]; 1.25% (wt/vol), 13 day): 4
- Grade ([2]; 1.25% (wt/vol), 30 day): 4
- Grade ([2]; 2.5% (wt/vol), 3 day): 4
- Grade ([2]; 2.5% (wt/vol), 13 day): 4
- Grade ([2]; 2.5% (wt/vol), 30 day): 4
- Grade ([2]; 5.0% (wt/vol), 3 day): 2 (Countable (10 to 100 colonies))
- Grade ([2]; 5.0% (wt/vol), 13 day): 2 (Countable (10 to 100 colonies))
- Grade ([2]; 5.0% (wt/vol), 30 day): 4
- P. vulgaris growth grade, 3 day ([3]; 0.5% weight/volume): 5 (More than 10,000 colonies estimated (thus more than 100,000 CFU/mL))
- P. vulgaris growth grade, 13 day ([3]; 0.5% weight/volume): 5 (More than 10,000 colonies estimated (thus more than 100,000 CFU/mL))
- P. vulgaris growth grade, 30 day ([3]; 0.5% weight/volume): 5 (More than 10,000 colonies estimated (thus more than 100,000 CFU/mL))
- P. vulgaris growth grade, 3 day ([3]; 1.25% weight/volume): 5 (More than 10,000 colonies estimated (thus more than 100,000 CFU/mL))
- P. vulgaris growth grade, 13 day ([3]; 1.25% weight/volume): 4 (1000 to 10,000 colonies countable (thus 10,000 CFU/mL to 100,000 CFU/mL))
- P. vulgaris growth grade, 30 day ([3]; 1.25% weight/volume): 4 (1000 to 10,000 colonies countable (thus 10,000 CFU/mL to 100,000 CFU/mL))
- P. vulgaris growth grade, 3 day ([3]; 2.5% weight/volume): 4 (1000 to 10,000 colonies countable (thus 10,000 CFU/mL to 100,000 CFU/mL))
- P. vulgaris growth grade, 13 day ([3]; 2.5% weight/volume): 4 (1000 to 10,000 colonies countable (thus 10,000 CFU/mL to 100,000 CFU/mL))
- P. vulgaris growth grade, 30 day ([3]; 2.5% weight/volume): 4 (1000 to 10,000 colonies countable (thus 10,000 CFU/mL to 100,000 CFU/mL))
- P. vulgaris growth grade, 3 day ([3]; 5.0% weight/volume): 4 (1000 to 10,000 colonies countable (thus 10,000 CFU/mL to 100,000 CFU/mL))
- P. vulgaris growth grade, 13 day ([3]; 5.0% weight/volume): 4 (1000 to 10,000 colonies countable (thus 10,000 CFU/mL to 100,000 CFU/mL))
- P. vulgaris growth grade, 30 day ([3]; 5.0% weight/volume): 4 (1000 to 10,000 colonies countable (thus 10,000 CFU/mL to 100,000 CFU/mL))
- Grade ([4]; 0.5% (wt/vol), 3 day): 5 (More than 10,000 colonies estimated (thus more than 100,000 CFU/mL))
- Grade ([4]; 0.5% (wt/vol), 14 day): 5 (More than 10,000 colonies estimated (thus more than 100,000 CFU/mL))
- Grade ([4]; 0.5% (wt/vol), 30 day): 5 (More than 10,000 colonies estimated (thus more than 100,000 CFU/mL))
- Grade ([4]; 1.25% (wt/vol), 3 day): 4.7
- Grade ([4]; 1.25% (wt/vol), 14 day): 4.7
- Grade ([4]; 1.25% (wt/vol), 30 day): 4.7
- Grade ([4]; 2.5% (wt/vol), 3 day): 4 (1000 to 10,000 colonies countable (thus 10,000 CFU/mL to 100,000 CFU/mL))
- Grade ([4]; 2.5% (wt/vol), 14 day): 4 (1000 to 10,000 colonies countable (thus 10,000 CFU/mL to 100,000 CFU/mL))
- Grade ([4]; 2.5% (wt/vol), 30 day): 4 (1000 to 10,000 colonies countable (thus 10,000 CFU/mL to 100,000 CFU/mL))
- Grade ([4]; 5.0% (wt/vol), 3 day): 3 (100 to 1000 colonies (thus 1000 to 10,000 CFU/mL))
- Grade ([4]; 5.0% (wt/vol), 14 day): 1 (0 to 51 colonies counted (thus 10 to 510 CFU/mL based on 0.1-mL sample))
- Grade ([4]; 5.0% (wt/vol), 30 day): 3.3
- Grade ([5]; 0.5% (wt/vol), 3 day): 5 (More than 10,000 colonies estimated (thus more than 100,000 CFU/mL))
- Grade ([5]; 0.5% (wt/vol), 14 day): 5 (More than 10,000 colonies estimated (thus more than 100,000 CFU/mL))
- Grade ([5]; 0.5% (wt/vol), 30 day): 5 (More than 10,000 colonies estimated (thus more than 100,000 CFU/mL))
- Grade ([5]; 1.25% (wt/vol), 3 day): 4 (1000 to 10,000 colonies countable (thus 10,000 CFU/mL to 100,000 CFU/mL))
- Grade ([5]; 1.25% (wt/vol), 14 day): 4 (1000 to 10,000 colonies countable (thus 10,000 CFU/mL to 100,000 CFU/mL))
- Grade ([5]; 1.25% (wt/vol), 30 day): 4 (1000 to 10,000 colonies countable (thus 10,000 CFU/mL to 100,000 CFU/mL))
- Grade ([5]; 2.5% (wt/vol), 3 day): 4 (1000 to 10,000 colonies countable (thus 10,000 CFU/mL to 100,000 CFU/mL))
- Grade ([5]; 2.5% (wt/vol), 14 day): 4 (1000 to 10,000 colonies countable (thus 10,000 CFU/mL to 100,000 CFU/mL))
- Grade ([5]; 2.5% (wt/vol), 30 day): 4 (1000 to 10,000 colonies countable (thus 10,000 CFU/mL to 100,000 CFU/mL))
- Grade ([5]; 5.0% (wt/vol), 3 day): 4 (1000 to 10,000 colonies countable (thus 10,000 CFU/mL to 100,000 CFU/mL))
- Grade ([5]; 5.0% (wt/vol), 14 day): 3 (100 to 1000 colonies (thus 1000 to 10,000 CFU/mL))
- Grade ([5]; 5.0% (wt/vol), 30 day): 4 (1000 to 10,000 colonies countable (thus 10,000 CFU/mL to 100,000 CFU/mL))
